Counter-ions that a name gives are not always drawn.

Consider 22 molecules from patent US20230069963A1, “PYRAZOLO[1,5-A]PYRIMIDINE MACROCYCLIC COMPOUND” (priority 2018, published 2023).

The subject of this assay is RSV ATCC VR-1540 (A2). The experiment in a line: microbe, parasite or virus in culture. In kind it is cell-based. The settings on record: human respiratory syncytial virus, HEp-2, 96 h; Hep2 cells, incubated for 4 days, CPE detected with XTT assay (absorbance 450 nm); read-out: EC50 (nmol/L) against RSV A2 strain. In general terms: Tetrazolium assays rely on reduction of a dye to a coloured formazan, in cell work by metabolically active cells.
On to `Cc1c(NCCN)nc2cc3nn2c1NCCCCOc1ccc(Cl)cc1C(=O)N1CCCC[C@@H]31` [Example 285, (23aS)-18-[(2-aminoethyl)amino]-8-chloro-17-methyl-1,3,4,13,14,15,16,23a-octahydro-2H,6 H,12H-23,20-(metheno)pyrido[2,1-k]pyrimido[6,1-g][1,6,8,9,12]benzoxatetraazacyclopentadecin-6-one hydrochloride], for which the EC50 was 11.9 nmol/L.

As to `CN1CCNCCOc2ccc(F)cc2C(=O)N2CCCC[C@H]2c2cc3nc(N4CCC4)c(F)c1n3n2` [Example 198, (18aS)-13-(azetidin-1-yl)-2,12-difluoro-11-methyl-6,7,8,9,10,11,19,20,21,22-decahydro-18aH,24H-18,15-(metheno)pyrido[2,1-l]pyrimido[6,1-h][1,4,7,9,10,13]benzoxapentaazacyclohexadecin-24-one], the EC50 is 2.82 nmol/L.

As for `Cc1c(N2CCC(N)C2)nc2cc3nn2c1N(C)CCCCOc1ccc(Cl)cc1C(=O)N1CCCCC31` [Example 286, (23aS)-18-[(3S)-3-aminopyrrolidin-1-yl]-8-chloro-16,17-dimethyl-1,3,4,13,14,15,16,23a-octahydro-2H,6H,12H-23,20-(metheno)pyrido[2,1-k]pyrimido[6,1-g][1,6,8,9,12]benzoxatetraazacyclopentadecin-6-one], the EC50 is 20.8 nmol/L.

On to `CN1CCNC(=O)COc2ccc(Cl)cc2C(=O)N2CCCCC2c2cc3nc(N4CC[C@H](N)C4)c(F)c1n3n2` (stereo partly drawn) [Example 87, (18aS)-13-[(3S)-3-aminopyrrolidin-1-yl]-2-chloro-12-fluoro-11-methyl-8,9,10,11,19,20,21,22-octahydro-18aH,24H-18,15-(metheno)pyrido[2,1-l]pyrimido[6,1-h][1,4,7,9,10,13]benzoxapentaazacyclohexadecine-7,24(6H)-dione hydrochloride], for which the EC50 stood at 3.77 nmol/L.

`CN1CCOc2ccc(Cl)cc2C(=O)N2CCCC[C@H]2c2cc3nc(NC4CNC4)cc(n3n2)N(C)CC1` [Example 161, (18aS)-13-[(azetidin-3-yl)amino]-2-chloro-8,11-dimethyl-6,7,8,9,10,11,19,20,21,22-decahydro-18aH,24H-18,15-(metheno)pyrido[2,1-l]pyrimido[6,1-h][1,4,7,9,10,13]benzoxapentaazacyclohexadecin-24-one]: the EC50 stood at 19.6 nmol/L.

Consider `Cc1nnc2n1CCN(C)c1cc(N3CCC3)nc3cc(nn13)[C@@H]1CCCCN1C(=O)c1cc(Cl)ccc1OC2` [Example 329, (20aS)-15-(azetidin-1-yl)-2-chloro-9,13-dimethyl-12,13,21,22,23,24-hexahydro-6H,11H,20aH,26H-20,17-(metheno)pyrido[2,1-l]pyrimido[6,1-h][1,2,4]triazolo[3,4-c][1,4,7,9,10,13]benzoxapentaazacyclohexadecin-26-one], for which the EC50 was found to be 1.61 nmol/L.

For the molecule `CN1CC(C)(C)NC(=O)COc2ccc(F)cc2C(=O)N2CCCC[C@H]2c2cc3nc(N4CC(N)C4)cc1n3n2` [Example 11, (18aS)-13-(3-aminoazetidin-1-yl)-2-fluoro-9,9,11-trimethyl-8,9,10,11,19,20,21,22-octahydro-18aH,24H-18,15-(metheno)pyrido[2,1-l]pyrimido[6,1-h][1,4,7,9,10,13]benzoxapentaazacyclohexadecine-7,24(6H)-dione], the EC50 came out at 1.56 nmol/L.

Regarding `CN1CCNC(=O)COc2ccc(F)cc2C(=O)N2CCCC[C@H]2c2cc3nc(N4CC(O)C4)cc1n3n2` [Example 3, (18aS)-2-fluoro-13-(3-hydroxyazetidin-1-yl)-J 1-methyl-8,9,10,11,19,20,21,22-octahydro-18aH,24H-18,15-(metheno)pyrido[2,1-l]pyrimido[6,1-h][1,4,7,9,10,13]benzoxapentaazacyclohexadecine-7,24(6H)-dione], the EC50 is approximately 0.81 nmol/L.

For `COc1cc2n3nc(cc3n1)[C@@H]1CCCCN1C(=O)c1cc(F)ccc1OCC(=O)NCCN2C` [Example 20, (18aS)-2-fluoro-I 3-methoxy-11-methyl-8,9,10,11,19,20,21,22-octahydro-18aH,24H-18,15-(metheno)pyrido[2,1-l]pyrimido[6,1-h][1,4,7,9,10,13]benzoxapentaazacyclohexadecine-7,24(6H)-dione], the EC50 worked out at 1.26 nmol/L.

For `CCc1ccc2c(c1)C(=O)N(C)[C@@H](CC)c1cc3nc(N4CC[C@H](N)C4)cc(n3n1)N(C)CCCS(=O)(=O)N2` [Example 303, (17S)-3-[(3S)-3-aminopyrrolidin-1-yl]-13,17-diethyl-5,16-dimethyl-7,8,16,17-tetrahydro-5H-18,1-(metheno)-9λ^6-pyrimido[6,1-g][2,1,6,8,9,12]benzothiapentaazacyclopentadecine-9,9,15 (6H,10H)-trione], the EC50 turned out to be 10.5 nmol/L.

Consider `CCC1c2cc3nc(N4CC[C@H](N)C4)cc(n3n2)N(C)CCN(S(C)(=O)=O)CCOc2ccc(C)cc2C(=O)N1C` (stereo partly drawn) [Example 195, (18S)-3-[(3S)-3-aminopyrrolidin-1-yl]-18-ethyl-8-(methanesulfonyl)-5,14,17-trimethyl-5,6,7,8,9,10,17,18-octahydro-16H-19,1-(metheno)pyrimido[6,1-h][1,4,7,9,11,13]benzoxapentaazacyclohexadecin-16-one], for which the EC50 came out at 20.5 nmol/L.

On to `CNC1CN(c2cc3n4nc(cc4n2)[C@@H]2CCCCN2C(=O)c2cc(F)ccc2OCC(=O)NCCN3C)C1` [Example 5, (18aS)-2-fluoro-11-methyl-13-[3-(methylamino)azetidin-1-yl]-8,9,10,11,19,20,21,22-octahydro-18aH,24H-18,15-(metheno)pyrido[2,1-l]pyrimido[6,1-h][1,4,7,9,10,13]benzoxapentaazacyclohexadecine-7,24(6H)-dione], for which the EC50 amounted to 7.02 nmol/L.

Consider `CC[C@H]1c2cc3nc(N4CC[C@H](N)C4)cc(n3n2)N(C)CCCOc2ccc(C)cc2C(=O)N1C` [Example 238, (16S)-3-[(3S)-3-aminopyrrolidin-1-yl]-16-ethyl-5,12,15-trimethyl-5,6,7,8,15,16-hexahydro-14H-17,1-(metheno)pyrimido[6,1-f][1,5,7,8,11]benzoxatetraazacyclotetradecin-14-one], for which the EC50 came to 28 nmol/L.

Consider `CN1CCc2cn(nn2)Cc2ccc(Cl)cc2C(=O)N2CCCC[C@H]2c2cc3nc(N4CC(N)C4)cc1n3n2` [Example 330, (19aS)-14-(3-aminoazetidin-1-yl)-2-chloro-12-methyl-11,12,20,21,22,23-hexahydro-10H,19aH-6,9:19,16-di(metheno)pyrido[2,1-m]pyrimido[6,1-i][2,3,4,8,10,11,14]benzoheptaazacycloheptadecin-25(5H)-one], for which the EC50 was found to be 19.8 nmol/L.

Turning to `CC1Oc2ccc(F)cc2C(=O)N2CCCCC2c2cc3nc(N4CC(N)C4)cc(n3n2)N(C)CCNC1=O` [Example 12, (18aS)-13-(3-aminoazetidin-1-yl)-2-fluoro-6,11-dimethyl-8,9,10,11,19,20,21,22-octahydro-18aH,24H-18,15-(metheno)pyrido[2,1-l]pyrimido[6,1-h][1,4,7,9,10,13]benzoxapentaazacyclohexadecine-7,24(6H)-dione], the EC50 was approximately 2 nmol/L.

As for `CN1CCCCCc2ccc(F)cc2C(=O)N2CCCC[C@H]2c2cc3nc(N4CCC4)cc1n3n2` [Example 279, (23aS)-18-(azetidin-1-yl)-8-fluoro-16-methyl-1,3,4,11,12,13,14,15,16,23a-decahydro-2H,6H-23,20-(metheno)pyrido[1,2-b]pyrimido[1,6-f][2,5,6,8]benzotetraazacyclopentadecin-6-one], the EC50 is 14.5 nmol/L.

With `CN1CCCCS(=O)(=O)NC(C)(c2ccc(F)cc2)C(=O)N2CCCC[C@H]2c2cc3nc(N4CC(O)C4)cc1n3n2` (stereo partly drawn) [Example 377, (18aS)-12-(4-fluorophenyl)-3-(3-hydroxyazetidin-1-yl)-5,12-dimethyl-6,7,8,9,11,12,16,17,18,18a-decahydro-5H,15H-19,1-(metheno)-10λ^6-pyrido[1,2-e]pyrimido[1,6-i][1,2,5,8,9,11]thiapentaazacyclopentadecine-10,10,13-trione], the EC50 is 22.7 nmol/L.

Consider `CN1CCOCCOc2ccc(Cl)cc2C(=O)N2CCCCC2c2cc3nc(N4CCC(N)C4)cc1n3n2` [Example 297, (18aS)-13-[(3S)-3-aminopyrrolidin-1-yl]-2-chloro-11-methyl-6,7,10,11,19,20,21,22-octahydro-9H,18aH,24H-18,15-(metheno)pyrido[2,1-l]pyrimido[6,1-h][1,4,7,9,10,13]benzodioxatetraazacyclohexadecin-24-one], for which the EC50 was 8.74 nmol/L.

As to `CC[C@H]1c2cc3nc(NCC(C)(C)N)cc(n3n2)N(C)CCCCOc2ccc(C)cc2C(=O)N1C` [Example 208, (17S)-3-[(2-amino-2-methylpropyl)amino]-17-ethyl-5,13,16-trimethyl-6,7,8,9,16,17-hexahydro-5H,15H-18,1-(metheno)pyrimido[6,1-g][1,6,8,9,12]benzoxatetraazacyclopentadecin-15-one hydrochloride], the EC50 was 4.33 nmol/L.

Turning to `Cc1c(N2CCC2)nc2cc3nn2c1NCCCCOc1ccc(Cl)cc1C(=O)N1CCCC[C@@H]31` [Example 284, (23aS)-18-(azetidin-1-yl)-8-chloro-17-methyl-1,3,4,13,14,15,16,23a-octahydro-2H,6H,12H-23,20-(metheno)pyrido[2,1-k]pyrimido[6,1-g][1,6,8,9,12]benzoxatetraazacyclopentadecin-6-one], the EC50 is 22.2 nmol/L.

As to `CC[C@H]1c2cc3nc(N4CC[C@H](N)C4)cc(n3n2)N(C)CCCCN(C)c2ccc(C)cc2C(=O)N1C` [Example 218, (17S)-3-[(3S)-3-aminopyrrolidin-1-yl]-17-ethyl-5,10,13,16-tetramethyl-5,6,7,8,9,10,16,17-octahydro-15H-18,1-(metheno)pyrimido[6,1-g][1,6,8,9,12]benzopentaazacyclopentadecin-15-one], the EC50 worked out at 9.8 nmol/L.

`COc1ccc2c(c1)C(=O)N1CCCC[C@H]1c1cc3nc(N4CCC4)cc(n3n1)N(C)CCNC(=O)CO2` [Example 51, (18aS)-13-(azetidin-1-yl)-2-methoxy-11-methyl-8,9,10,11,19,20,21,22-octahydro-18aH,24H-18,15-(metheno)pyrido[2,1-l]pyrimido[6,1-h][1,4,7,9,10,13]benzoxapentaazacyclohexadecine-7,24(6H)-dione]: the EC50 worked out at 1.21 nmol/L.
